Laboratory results: BindingDB's records for patent US9233979 (Merck Sharp & Dohme, 2016)

Molecular target: Mitogen-activated protein kinase 1 (Homo sapiens, UniProt P28482)
Assay: IMAP-FP Assay
Method: Activated ERK2 activity was determined in an IMAP-FP assay (Molecular Devices).

Mitogen-activated protein kinase 1, sequence (P28482 whole entry): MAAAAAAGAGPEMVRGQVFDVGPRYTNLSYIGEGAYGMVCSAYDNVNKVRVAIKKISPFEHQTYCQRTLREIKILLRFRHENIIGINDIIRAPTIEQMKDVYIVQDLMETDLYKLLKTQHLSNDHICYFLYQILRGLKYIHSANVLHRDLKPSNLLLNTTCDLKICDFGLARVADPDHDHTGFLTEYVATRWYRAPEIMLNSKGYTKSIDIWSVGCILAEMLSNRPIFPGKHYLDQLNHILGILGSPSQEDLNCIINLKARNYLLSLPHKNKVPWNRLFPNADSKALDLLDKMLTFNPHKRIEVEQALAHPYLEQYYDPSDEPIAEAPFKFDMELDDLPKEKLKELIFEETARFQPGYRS

- IC50: 8.69 nM
SMILES: COC1CN(c2n[nH]c3cc(NC(=O)N[C@H](C)c4ccc(F)cc4)ncc23)C1 [US9233979, 23]
